Test results as given in ChEMBL document CHEMBL1201862, “PubChem BioAssay data set” (2004).
The source made the active and inactive calls.

Legend:
[1] = fluconazole-exposed Candida albicans growth modulators – fluorescence, retest, confirmation (AID 2467); type: functional, cell-based
[2] = target: T1, Neuropeptides B/W receptor type 1 (Homo sapiens, UniProt P48145); test: Fluorescence-based dose response cell-based high throughput screening assay to identify antagonists of the G-protein coupled receptor 7 (GPR7). [Related pubchem assays: 1952 (Screening assay (GPR7 antagonists).), 1880 (Summary AID.)]; type: functional
T1 sequence (P48145 whole entry): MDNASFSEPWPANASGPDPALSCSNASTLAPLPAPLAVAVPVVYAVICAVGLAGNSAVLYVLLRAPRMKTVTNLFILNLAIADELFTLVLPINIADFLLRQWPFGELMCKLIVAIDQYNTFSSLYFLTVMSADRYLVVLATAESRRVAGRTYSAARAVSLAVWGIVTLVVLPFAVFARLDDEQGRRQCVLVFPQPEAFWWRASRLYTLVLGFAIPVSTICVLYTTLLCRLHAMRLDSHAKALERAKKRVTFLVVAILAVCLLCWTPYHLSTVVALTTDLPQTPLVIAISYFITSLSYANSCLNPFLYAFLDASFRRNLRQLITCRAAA

[3] = target: UDP-galactopyranose mutase (Mycobacterium tuberculosis, UniProt P9WIQ1); test: Inhibitors of Mycobacterium tuberculosis UDP-galactopyranose mutase (UGM) enzyme Measured in Biochemical System Using Plate Reader - 2105-02_Inhibitor_Dose_CherryPick_Activity. [Related pubchem assays (depositor defined):AID504439]
UDP-galactopyranose mutase, sequence (P9WIQ1 whole entry): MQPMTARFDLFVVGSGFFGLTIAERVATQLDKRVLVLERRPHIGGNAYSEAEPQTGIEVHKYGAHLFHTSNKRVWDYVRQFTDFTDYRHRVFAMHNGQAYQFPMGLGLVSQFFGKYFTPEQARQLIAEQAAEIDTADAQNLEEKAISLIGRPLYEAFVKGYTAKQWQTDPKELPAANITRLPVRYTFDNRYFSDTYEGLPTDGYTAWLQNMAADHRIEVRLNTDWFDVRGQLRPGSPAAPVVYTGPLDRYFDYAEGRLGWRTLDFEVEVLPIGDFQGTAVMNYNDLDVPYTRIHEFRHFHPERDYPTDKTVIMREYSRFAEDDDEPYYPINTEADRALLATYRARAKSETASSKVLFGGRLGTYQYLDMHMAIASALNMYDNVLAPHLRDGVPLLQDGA

[4] = viability of HCT116 lacking mutant beta-catenin – cell-based, human colon tumor, dose response (AID 1045); type: functional;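 further: HCT116 colon tumor cells with beta catenin knocked out; cells exposed to compound for 60 hours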
[5] = target: Dual specificity protein phosphatase 3 (Homo sapiens, UniProt P51452); test: VHR phosphatase inhibition, dose response, selectivity assay for STEP inhibitor project, biochemical (AID 602374); type: functional; conditions: read-out: IC50_Mean
Dual specificity protein phosphatase 3, sequence (P51452 whole entry): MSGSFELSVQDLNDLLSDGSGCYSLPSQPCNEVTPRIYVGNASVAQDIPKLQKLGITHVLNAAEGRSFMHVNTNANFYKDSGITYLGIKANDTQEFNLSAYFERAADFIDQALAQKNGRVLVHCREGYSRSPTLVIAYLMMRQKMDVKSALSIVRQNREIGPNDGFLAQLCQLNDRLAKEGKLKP

[6] = target: T2, Tyrosine-protein phosphatase non-receptor type 22 (Homo sapiens, UniProt Q9Y2R2); test: inhibition of lymphoid tyrosine phosphatase LYP – biochemical, pCAP fluorogenic substrate, fluorescence, set 3, SAR follow-up (AID 449727); type: functional
T2 sequence (Q9Y2R2 whole entry): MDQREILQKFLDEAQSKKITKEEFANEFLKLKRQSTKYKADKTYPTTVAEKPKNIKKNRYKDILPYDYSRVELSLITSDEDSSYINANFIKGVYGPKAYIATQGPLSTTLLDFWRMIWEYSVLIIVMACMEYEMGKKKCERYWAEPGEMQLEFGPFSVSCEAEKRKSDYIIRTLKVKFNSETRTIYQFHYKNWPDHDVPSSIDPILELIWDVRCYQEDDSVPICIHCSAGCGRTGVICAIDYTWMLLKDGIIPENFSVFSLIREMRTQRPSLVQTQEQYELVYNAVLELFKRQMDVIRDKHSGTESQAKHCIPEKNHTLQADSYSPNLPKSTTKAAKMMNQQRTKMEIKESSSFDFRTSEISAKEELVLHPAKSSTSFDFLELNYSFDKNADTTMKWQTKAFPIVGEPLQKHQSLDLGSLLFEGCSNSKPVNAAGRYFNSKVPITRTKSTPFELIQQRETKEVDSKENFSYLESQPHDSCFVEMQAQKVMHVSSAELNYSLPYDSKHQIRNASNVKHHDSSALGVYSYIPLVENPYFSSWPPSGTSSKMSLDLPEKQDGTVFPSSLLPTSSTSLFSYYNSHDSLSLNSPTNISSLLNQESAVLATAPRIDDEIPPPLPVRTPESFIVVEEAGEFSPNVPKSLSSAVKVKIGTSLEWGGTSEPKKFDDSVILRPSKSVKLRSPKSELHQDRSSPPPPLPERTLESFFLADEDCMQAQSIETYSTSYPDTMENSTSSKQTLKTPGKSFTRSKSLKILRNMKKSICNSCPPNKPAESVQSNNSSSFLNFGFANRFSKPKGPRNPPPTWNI

Troponin, cardiac muscle = Troponin, cardiac muscle (Homo sapiens, UniProt P19429+P45379+P63316); test: compounds desensitizing RTF to calcium – biochemical, fluorescence, cardiac regulated thin filaments, triplicate IC50, dose response (AID 504742); type: protein-complex assay
Caspase-3 = target: T3, Caspase-3 (Homo sapiens, UniProt P42574); test: Dose-response confirmation of uHTS inhibitor hits of Sentrin-Specific Protease 8 in a Caspase-3 Fluorescence assay.; type: functional
T3 sequence (P42574 whole entry): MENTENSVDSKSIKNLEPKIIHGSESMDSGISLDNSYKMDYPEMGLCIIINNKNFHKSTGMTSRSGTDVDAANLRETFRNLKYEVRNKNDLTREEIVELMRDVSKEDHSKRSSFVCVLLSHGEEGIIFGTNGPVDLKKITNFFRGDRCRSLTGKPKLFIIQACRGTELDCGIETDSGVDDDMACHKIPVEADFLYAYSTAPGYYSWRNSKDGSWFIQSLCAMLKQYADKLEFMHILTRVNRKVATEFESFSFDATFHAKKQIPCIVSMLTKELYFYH

[7] = target: T4, High affinity choline transporter 1 (Homo sapiens, UniProt Q9GZV3); test: human choline transporter blockers, potency – cell-based, 5-point CRC, membrane potential dye, dose response (AID 504840); type: functional
T4 sequence (Q9GZV3 whole entry): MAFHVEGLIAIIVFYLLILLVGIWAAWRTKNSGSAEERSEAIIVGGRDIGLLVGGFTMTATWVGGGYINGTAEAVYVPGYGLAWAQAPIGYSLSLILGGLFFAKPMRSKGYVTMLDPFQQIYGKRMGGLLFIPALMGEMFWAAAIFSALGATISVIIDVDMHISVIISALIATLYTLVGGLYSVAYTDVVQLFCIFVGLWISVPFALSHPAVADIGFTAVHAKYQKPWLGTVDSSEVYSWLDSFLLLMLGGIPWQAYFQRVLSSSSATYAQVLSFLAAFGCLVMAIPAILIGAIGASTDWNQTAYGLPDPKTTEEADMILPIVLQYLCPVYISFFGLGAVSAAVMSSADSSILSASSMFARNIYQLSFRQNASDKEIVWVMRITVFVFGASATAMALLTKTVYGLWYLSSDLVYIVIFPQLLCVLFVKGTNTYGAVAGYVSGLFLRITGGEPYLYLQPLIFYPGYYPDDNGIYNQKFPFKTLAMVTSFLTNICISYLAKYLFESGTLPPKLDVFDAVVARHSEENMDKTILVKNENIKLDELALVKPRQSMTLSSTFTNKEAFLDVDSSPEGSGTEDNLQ

## CCN1/C(=C/c2ccc3cc(C)ccc3[n+]2CC)Sc2cc(C)c(C)cc21
[1]
  EC50: < 30 nM (active)
[2]
  IC50: 9.2 µM (active)

## Nc1ccc2nc3c(O)nc(S)nc3nc2c1
[3]
  AC50: 3.57 µM (active)

## Cc1oc2c(c1C(=O)c1ccccc1)C(=O)C(=O)c1ccccc1-2
[4]
  EC50: 2.26 µM (active)

## CSc1ccc(C=NNc2ccc(S(=O)(=O)Nc3ccccc3C(=O)O)cc2[N+](=O)[O-])cc1
[5]
  IC50: 1.27 µM (active)

## O=C(O)COc1ccc(/C=N/NC(=O)c2ccc(-c3csc(Nc4ccc(Cl)cc4)n3)cc2)cc1
[6]
  IC50: 369 nM (active)
Troponin, cardiac muscle
  IC50: > 71.5 µM (inactive)

## COc1cc(NCCCNC(C)C)c2nccc(C)c2c1
Caspase-3
  IC50: 13.8 µM (active)

## CC(/C=C1\SC(=S)N(NS(=O)(=O)c2ccccc2)C1=O)=C\c1ccccc1
[7]
  IC50: 9.12 µM (active)
